# Reference: ChEMBL document CHEMBL1201862, “PubChem BioAssay data set” (2004)
# Activity calls are given as the source filed them.
# Assays:
# Leucine aminopeptidase = biological target: T1, Leucine aminopeptidase (Plasmodium falciparum 3D7, UniProt Q8IL11); test: P. falciparum M17LAP inhibitors, primary screen, biochemical, fluorogenic H-Leu-NHMec substrate, 1536-well (AID 1619); format: functional
# T1 sequence (Q8IL11 whole entry): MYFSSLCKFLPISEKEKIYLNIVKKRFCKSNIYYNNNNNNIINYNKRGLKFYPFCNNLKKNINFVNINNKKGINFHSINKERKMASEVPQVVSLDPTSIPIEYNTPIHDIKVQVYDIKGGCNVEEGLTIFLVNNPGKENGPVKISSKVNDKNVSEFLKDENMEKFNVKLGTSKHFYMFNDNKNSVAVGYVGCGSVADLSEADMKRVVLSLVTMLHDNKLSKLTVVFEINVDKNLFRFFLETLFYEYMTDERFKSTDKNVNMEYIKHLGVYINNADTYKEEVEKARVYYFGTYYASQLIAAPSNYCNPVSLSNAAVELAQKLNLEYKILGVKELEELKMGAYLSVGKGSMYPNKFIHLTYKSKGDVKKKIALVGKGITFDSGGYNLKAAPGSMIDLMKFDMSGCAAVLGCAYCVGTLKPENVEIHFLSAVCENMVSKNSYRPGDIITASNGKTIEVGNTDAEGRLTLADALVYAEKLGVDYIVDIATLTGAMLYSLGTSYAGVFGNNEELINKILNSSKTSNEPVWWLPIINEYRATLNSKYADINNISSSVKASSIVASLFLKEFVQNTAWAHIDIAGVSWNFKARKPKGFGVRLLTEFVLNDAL
# cells [1] = format: functional, cell-based
# cells [2] = format: functional, cell-based; remark: listed apart in the source
# [3] = biological target: T2, Long-chain-fatty-acid--AMP ligase FadD28 (Mycobacterium tuberculosis, UniProt P9WQ59); test: Fluorescence polarization aasay to screen for inhibitors that compete for the binding of FadD28 to a bisubstrate Measured in Biochemical System Using Plate Reader - 2147-01_Inhibitor_Dose_CherryPick_Activity.; format: functional, Mycobacterium tuberculosis H37Rv
# T2 sequence (P9WQ59 whole entry): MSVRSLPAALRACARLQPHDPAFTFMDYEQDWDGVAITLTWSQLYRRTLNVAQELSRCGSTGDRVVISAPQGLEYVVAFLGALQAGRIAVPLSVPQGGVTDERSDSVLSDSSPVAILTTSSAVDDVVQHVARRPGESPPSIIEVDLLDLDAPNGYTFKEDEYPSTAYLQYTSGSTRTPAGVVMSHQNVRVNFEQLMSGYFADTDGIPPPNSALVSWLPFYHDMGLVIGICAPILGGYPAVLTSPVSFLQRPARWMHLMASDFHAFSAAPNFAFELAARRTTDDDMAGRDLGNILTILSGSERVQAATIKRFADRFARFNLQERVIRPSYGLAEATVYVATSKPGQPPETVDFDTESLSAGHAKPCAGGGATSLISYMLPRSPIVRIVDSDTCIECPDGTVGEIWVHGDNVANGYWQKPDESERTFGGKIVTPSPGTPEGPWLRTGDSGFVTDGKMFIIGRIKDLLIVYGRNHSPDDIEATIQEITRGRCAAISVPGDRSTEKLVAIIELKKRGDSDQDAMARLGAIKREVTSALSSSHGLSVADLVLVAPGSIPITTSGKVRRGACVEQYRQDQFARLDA
# Protein skinhead-1 = biological target: T3, Protein skinhead-1 (Caenorhabditis elegans, UniProt P34707); format: functional
# T3 sequence (P34707 whole entry): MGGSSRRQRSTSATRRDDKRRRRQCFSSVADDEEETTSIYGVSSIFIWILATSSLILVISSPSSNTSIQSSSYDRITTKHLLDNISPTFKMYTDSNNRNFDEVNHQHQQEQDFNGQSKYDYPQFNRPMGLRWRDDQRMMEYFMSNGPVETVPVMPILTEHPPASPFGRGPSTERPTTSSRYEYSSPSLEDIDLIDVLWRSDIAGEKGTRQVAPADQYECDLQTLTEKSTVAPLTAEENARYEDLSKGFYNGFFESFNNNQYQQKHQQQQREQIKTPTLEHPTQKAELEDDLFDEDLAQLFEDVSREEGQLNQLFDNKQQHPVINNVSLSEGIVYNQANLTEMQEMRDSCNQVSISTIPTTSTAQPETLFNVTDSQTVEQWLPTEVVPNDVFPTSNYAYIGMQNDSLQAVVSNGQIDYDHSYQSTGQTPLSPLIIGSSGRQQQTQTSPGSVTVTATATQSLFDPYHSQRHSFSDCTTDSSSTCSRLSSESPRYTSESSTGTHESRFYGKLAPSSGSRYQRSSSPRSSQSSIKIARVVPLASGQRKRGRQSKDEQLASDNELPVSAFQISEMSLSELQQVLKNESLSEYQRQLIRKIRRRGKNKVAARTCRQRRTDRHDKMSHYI
# [4] = biological target: T4, Histone-lysine N-methyltransferase NSD2 (Homo sapiens, UniProt O96028); format: biochemical
# T4 sequence (O96028 whole entry): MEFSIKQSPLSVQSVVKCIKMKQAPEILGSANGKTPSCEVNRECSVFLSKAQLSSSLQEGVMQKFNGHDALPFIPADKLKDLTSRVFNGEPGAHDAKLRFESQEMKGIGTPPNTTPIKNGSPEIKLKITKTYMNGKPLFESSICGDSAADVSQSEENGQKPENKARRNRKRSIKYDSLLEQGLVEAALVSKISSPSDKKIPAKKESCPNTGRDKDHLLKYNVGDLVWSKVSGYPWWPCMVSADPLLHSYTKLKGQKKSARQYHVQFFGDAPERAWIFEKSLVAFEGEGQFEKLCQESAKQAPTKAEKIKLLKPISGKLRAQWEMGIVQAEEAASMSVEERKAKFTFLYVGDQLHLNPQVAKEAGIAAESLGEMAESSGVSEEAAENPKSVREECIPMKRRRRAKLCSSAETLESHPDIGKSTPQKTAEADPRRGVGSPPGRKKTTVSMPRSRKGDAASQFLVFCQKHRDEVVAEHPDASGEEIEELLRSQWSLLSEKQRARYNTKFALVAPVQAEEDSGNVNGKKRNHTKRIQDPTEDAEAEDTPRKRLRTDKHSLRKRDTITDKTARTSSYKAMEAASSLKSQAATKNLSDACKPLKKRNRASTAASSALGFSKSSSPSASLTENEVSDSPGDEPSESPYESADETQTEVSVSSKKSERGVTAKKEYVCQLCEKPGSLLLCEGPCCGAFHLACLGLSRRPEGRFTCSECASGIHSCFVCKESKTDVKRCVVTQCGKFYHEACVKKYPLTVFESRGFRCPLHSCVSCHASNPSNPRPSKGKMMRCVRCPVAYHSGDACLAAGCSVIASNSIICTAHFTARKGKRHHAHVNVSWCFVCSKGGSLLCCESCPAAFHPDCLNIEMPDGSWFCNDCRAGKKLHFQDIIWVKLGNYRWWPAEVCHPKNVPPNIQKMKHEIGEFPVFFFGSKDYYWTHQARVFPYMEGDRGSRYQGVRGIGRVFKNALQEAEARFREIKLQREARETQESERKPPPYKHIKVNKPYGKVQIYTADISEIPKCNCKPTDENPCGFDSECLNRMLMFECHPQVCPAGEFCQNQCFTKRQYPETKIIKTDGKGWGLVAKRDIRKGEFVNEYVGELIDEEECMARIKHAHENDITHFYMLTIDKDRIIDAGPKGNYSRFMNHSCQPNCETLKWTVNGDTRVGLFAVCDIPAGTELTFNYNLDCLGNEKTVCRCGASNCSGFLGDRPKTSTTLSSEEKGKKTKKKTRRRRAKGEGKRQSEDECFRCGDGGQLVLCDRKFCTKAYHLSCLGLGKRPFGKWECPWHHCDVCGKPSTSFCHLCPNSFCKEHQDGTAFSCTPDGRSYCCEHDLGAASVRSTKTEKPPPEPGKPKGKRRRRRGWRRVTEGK
# Streptokinase A = biological target: T5, Streptokinase A (Streptococcus pyogenes serotype M1, UniProt P10520); test: viability-normalized secreted streptokinase activity reduction – plasminogen activation absorbance, OD405, dose response (AID 1914); format: functional, Streptococcus pyogenes M1 GAS;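 note: secreted streptokinase activity via plasminogen activation per viability signal from cell pellet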
# T5 sequence (P10520 whole entry): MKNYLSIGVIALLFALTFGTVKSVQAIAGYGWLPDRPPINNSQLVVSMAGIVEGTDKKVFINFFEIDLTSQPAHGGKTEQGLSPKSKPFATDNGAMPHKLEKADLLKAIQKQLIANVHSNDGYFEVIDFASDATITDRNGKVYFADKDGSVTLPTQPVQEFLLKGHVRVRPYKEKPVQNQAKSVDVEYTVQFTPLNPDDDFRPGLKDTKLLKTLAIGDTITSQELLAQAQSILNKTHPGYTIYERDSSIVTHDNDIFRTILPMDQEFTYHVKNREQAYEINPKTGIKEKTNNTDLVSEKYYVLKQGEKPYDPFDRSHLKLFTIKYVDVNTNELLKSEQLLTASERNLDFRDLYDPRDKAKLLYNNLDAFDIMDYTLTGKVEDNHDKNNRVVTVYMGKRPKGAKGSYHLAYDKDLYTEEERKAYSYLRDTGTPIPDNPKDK
# [5] = biological target: T6, Short transient receptor potential channel 4 (Mus musculus, UniProt Q9QUQ5); test: block of DAMGO-driven TRPC4 calcium entry – cell-based, HEK293 TRPC4/mu-opioid, Fluo-4 calcium, dose response (AID 434942); format: functional;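 note: potency of inhibitors blocking the TRPC4 calcium response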
# T6 sequence (Q9QUQ5 whole entry): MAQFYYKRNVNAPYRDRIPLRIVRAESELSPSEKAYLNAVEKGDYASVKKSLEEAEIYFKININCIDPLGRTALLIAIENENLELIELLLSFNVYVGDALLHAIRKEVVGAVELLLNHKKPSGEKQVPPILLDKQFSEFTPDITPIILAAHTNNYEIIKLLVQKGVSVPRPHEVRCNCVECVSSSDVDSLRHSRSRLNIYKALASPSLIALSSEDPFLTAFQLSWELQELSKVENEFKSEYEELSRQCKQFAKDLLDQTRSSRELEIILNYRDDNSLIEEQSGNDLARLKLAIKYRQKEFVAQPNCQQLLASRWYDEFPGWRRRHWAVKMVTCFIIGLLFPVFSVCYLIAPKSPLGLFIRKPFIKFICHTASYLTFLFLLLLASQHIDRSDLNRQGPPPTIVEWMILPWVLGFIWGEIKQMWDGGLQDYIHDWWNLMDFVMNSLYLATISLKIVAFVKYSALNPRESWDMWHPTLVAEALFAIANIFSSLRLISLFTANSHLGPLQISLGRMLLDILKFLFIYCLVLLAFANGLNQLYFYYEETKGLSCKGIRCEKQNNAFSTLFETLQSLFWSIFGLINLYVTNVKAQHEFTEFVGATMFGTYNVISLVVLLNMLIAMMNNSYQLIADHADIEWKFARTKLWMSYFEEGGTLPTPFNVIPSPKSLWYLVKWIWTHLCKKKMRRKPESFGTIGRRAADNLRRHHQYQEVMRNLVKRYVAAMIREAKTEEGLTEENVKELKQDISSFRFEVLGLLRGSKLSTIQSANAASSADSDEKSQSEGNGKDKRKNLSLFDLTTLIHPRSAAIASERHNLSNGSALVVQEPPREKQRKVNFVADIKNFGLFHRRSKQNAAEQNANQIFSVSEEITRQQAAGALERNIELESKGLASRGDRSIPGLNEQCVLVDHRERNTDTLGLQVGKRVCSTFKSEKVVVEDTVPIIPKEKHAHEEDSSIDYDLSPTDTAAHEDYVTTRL
# cells [6] = format: functional, cell-based; remark: listed apart in the source
# cells [7] = format: functional, cell-based; remark: listed apart in the source
# [8] = A549 cell cytotoxicity, dose response, cytotoxicity control, plate reader, cherry-pick, antagonist series (AID 743412); format: functional, cell-based
# [9] = Trypanosoma cruzi growth suppression in host cells – NIH3T3 host cells, beta-gal luminescence, confirmation (AID 2044); format: functional, cell-based;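 note: intracellular parasites grown in NIH/3T3 mouse fibroblasts as host cells; luminescent beta-galactosidase reporter signal from transgenic T. cruzi replicating inside host cells; inhibitors lower the luminescence signal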
# [10] = NIH3T3 cell viability loss – ATP luminescence, mouse fibroblasts, counter-screen, dose response (AID 2010); format: functional, cell-based;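 note: cells exposed to compound for about 90 hours before reading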
structure (smiles),measurement,setting,value
CC1=C(C)CC(C(=O)Nc2nc(-c3ccc(C)cc3C)c(C)s2)C(C(=O)O)C1 (stereo not drawn),IC50,Leucine aminopeptidase,3.71 µM (active)
COc1ccc(N2CCN(C(=O)C3COc4ccccc4O3)CC2)cc1 (stereo not drawn),EC50,cells [1],> 350 µM (not active)
same,EC50,cells [2],> 350 µM (not active)
O=C(Nc1ccc(Cl)cc1)N[C@@H]1c2c(ccc3ccccc23)OC[C@@H]1CO,AC50,[3],85.5 µM (active)
CCn1c(CSc2nnc(-c3ccncc3)n2C)nc2cc(C(=O)O)ccc21,IC50,Protein skinhead-1,> 100 µM (inactive)
same,AC50,[3],> 100 µM (inactive)
O=C(Cn1nnc(-c2ccc3c(c2)OCO3)n1)Nc1ccccc1C(=O)O,AC50,[3],32 µM (inactive)
COc1ccc(Cl)c(OC)c1C(=O)NC(=O)Nc1c(F)cc(F)cc1F,EC50,cells [1],> 350 µM (not active)
same,EC50,cells [2],> 350 µM (not active)
Cc1cc(C(=O)OCC(=O)N2C(C)CCCC2C)c(C)o1 (stereo not drawn),IC50,Leucine aminopeptidase,14.3 µM (active)
CCN(CC)CCNC(=O)c1cc2cc(Br)ccc2s1,AC50,[4],> 20 µM (inactive)
CC(C)N(C(C)C)S(=O)(=O)c1ccc(N2CCc3ccccc3C2)nc1,EC50,cells [1],> 350 µM (not active)
same,EC50,cells [2],> 350 µM (not active)
CN(C(=O)CSc1nc(-c2ccc(C(C)(C)C)cc2)c(C#N)c(=O)[nH]1)C1CCCCC1,EC50,Streptokinase A,> 150 µM (not active)
same,EC50,[5],9.44 µM (active)
same,AC50,[4],12.6 µM (active)
O=C(CSc1n[nH]c(-c2ccccc2)n1)NC(=O)NCc1ccco1,IC50,cells [6],> 29.9 µM (inactive)
same,EC50,cells [7],> 29.9 µM (inactive)
C[C@H](CO)N1C[C@H](C)[C@@H](CN(C)S(=O)(=O)c2cccs2)Oc2ccc(NC(=O)Nc3ccc(C(F)(F)F)cc3)cc2C1=O,AC50,[3],> 100 µM (inactive)
C[C@@H]1CN([C@@H](C)CO)S(=O)(=O)c2ccc(C3=CCCC3)cc2O[C@H]1CN(C)C(=O)c1ccccc1,AC50,[8],38.9 µM (active)
COc1cc(/C=N/NC(N)=S)ccc1OCc1ccc(C)cc1,EC50,[9],0.566 µM (active)
same,EC50,[10],8.5 µM (active)
same,AC50,[3],69.9 µM (active)
